The results in this text go back to patent US20260166159A1, “KRAS G12D DEGRADATION AGENT, AND PREPARATION METHOD AND USE THEREFOR” (LEADINGTAC PHARMACEUTICAL (SHAOXING) CO., LTD., priority 2022, published 2026).

What all share (assay type): cell-based
The test system of assay [1] is KRAS G12D mutant human gastric cancer cell AGS. In words: 3D cell proliferation inhibition assay, AGS. Particulars: 168 h, 7 days, CTG. An excerpt:
(§1) The inhibitory effects of the compounds on 3D cell proliferation were investigated on KRAS G12D mutant human lung cancer cell A427, KRAS G12D mutant human gastric cancer cell AGS, KRAS G12D mutant human metastatic pancreatic cancer cell AsPc-1, KRAS G12D mutant human pancreatic cancer cell Panc 04.03, KRAS G12D mutant human pancreatic cancer cell HPAC, KRAS G12V mutant human lung squamous cell carcinoma cell SW900, and KRAS WT human gastric cancer cell MKN1. The specific procedures were as follows:
(§2) 10 μL of each compound solution diluted in a gradient was added to corresponding wells of a 96-well low-adsorption microplate (PerkinElmer), so that the final concentrations of the test compounds in the reaction system were in a range of 10000-0.026 nM. The final concentration of DMSO was 0.2%. Then 90 µL of cells were correspondingly seeded into each well to achieve a cell density of 5×10^2 cells/well (the cell density of SW900 was 5×10^1 cells/well, and the cell density of MKN1 was 1×10^3 cells/well). In addition to test wells for the test compounds, both a DMSO control well and a medium control well were set, with the DMSO control well containing DMSO and cells and the medium well containing only a medium. After the sample loading, the 96-well low-adsorption microplate was incubated in an incubator at 37° C. with 5% carbon dioxide for 7 days. After 7 days, the microplate was taken out, and 100 μL of CTG reagent (Promega) was added to each well. The plate was incubated at room temperature for 60 min and read on a microplate reader EnVision by the chemiluminescence program. The inhibition rates of the compounds at each concentration were calculated using the formula for the percentage inhibition of cell proliferation: inhibition rate %=(mean value of DMSO control group−single concentration reading value of compound)/(mean value of DMSO control group−mean value of medium control group)×100. Then non-linear curve fittings for logarithmic concentration-inhibition rate were performed by GraphPad Prism 8, and the IC50 values of the compounds were obtained (Table 5).

Assay [2] relates to KRAS G12D mutant human lung cancer cell A427. Description: 3D cell proliferation inhibition assay, A427. The following applies: A-427, 168 h, A427, 7 days, CTG.
Text: as §1, §2

The target of a further assay is T1, KRAS-G12D (Homo sapiens, UniProt P01116, G12D).
T1 construct: endogenous in cells; host or cells: A-427 (ATCC), AGS, AsPc-1, Panc 04.03
In words: KRAS-G12D degradation assay (Western Blot), A-427 cells. Particulars: A427 cells, 24 h; for Dmax: A-427. On the procedure: The degradation effects of the compounds on KRAS-G12D were investigated on KRAS G12D mutant human lung cancer cell A-427 (ATCC), KRAS G12D mutant human gastric cancer cell AGS, KRAS G12D mutant human metastatic pancreatic cancer cell AsPc-1, and KRAS G12D mutant human pancreatic adenocarcinoma cell Panc 04.03. The specific procedures were as follows: 0.95 mL of cells were seeded into each well of a 24-well cell culture plate to achieve a cell density of 5×10^5 cells/well; and the cell plate was incubated in an incubator at 37° C. with 5% CO2 overnight. Then 50 μL of the compound solution after dilution was added to each of the wells with the corresponding cells, so that the final concentration of the compound was in a range of 0.03-3000 nM. The final concentration of DMSO was 0.25%. After the compounds were added, the cell plate was incubated in the incubator at 37° C. with 5% CO2 for 24 h. The culture medium in the 24-well cell culture plate was removed, and the plate was washed twice with 1×PBS (KeyGEN). 120 μL of RIPA (strong) lysis buffer (Beyotime) supplemented with 1 mM phenylmethylsulfonyl fluoride, a protease inhibitor mixture (Beyotime), and a protease phosphatase inhibitor mixture (Beyotime) was added to lyse adherent A-427 cells at the bottom of the cell culture plate. After the plate was left to stand on ice for 30 min, the protein lysate in each well was transferred to a 1.5 mL centrifuge tube and centrifuged at 15000 g for 20 min at 4° C. The cell lysate supernatants after centrifugation were cryopreserved in a refrigerator at −80° C. for later use.
After the samples of the cell lysate supernatants that had been prepared were thawed from the refrigerator at −80° C., the total protein concentrations of the cell lysates were determined using a BCA protein quantification kit (Tiangen). The total protein concentrations of the samples were then adjusted to 0.5 μg/μL with PBS and 5×SDS-PAGE protein loading buffer (Beyotime), and the samples were incubated in a water bath at 100° C. for 15 min. The samples were then incubated in an ice bath for 5 min and centrifuged at 14000 g for 1 min at 4° C., and the supernatants were mixed well as loading samples for the Western Blot assay. The samples were loaded into wells of a 10% precast gel (KeyGEN) with a loading volume of 10 μL (total protein: 5 μg), a sufficient Tris-MOPS-SDS running buffer (Adamas) was added, and then electrophoresis was performed at a constant voltage of 120 V for 55 min. After the electrophoresis, the proteins on the gel were transferred to PVDF membranes at a constant current of 250 mA for 55 min. After the membrane transfer, the PVDF membranes were incubated in 1× Quick Block blocking buffer (Beyotime) at room temperature for 30 min. After the blocking, the PVDF membranes were separately incubated at 4° C. overnight with the KRAS antibody (Abcam) diluted in a ratio of 1:1000 and the […] antibody (Abcam) diluted in a ratio of 1:2000 in 5% BSA as the diluent, and then washed with 1×TBST buffer (2.4 g of Tris, 8.8 g of NaCl, 1.5 mL of Tween 20, with pH adjusted to 7.4, with the volume brought to 1 L) 3 times for 10 min/time. The membranes were incubated with a secondary antibody (Abcam) diluted in 5% BSA at room temperature for 2 h, and then washed with 1×TBST buffer 3 times for 10 min/time. Finally, the membranes were incubated with Clarity Western ECL Substrate (BIO-RAD) for 5 min for luminescence and color development, and a ChemiScope 6200 Touch chemiluminescence imaging system (Clinx) was used for color development and protein mapping. Gray value analysis of the protein maps was performed using the chemiluminescence analysis software (Clinx). The gray correction value for each sample was calculated using the formula: gray correction value=(gray value of target protein/gray value of corresponding internal reference)×10^3. Then degradation rates were calculated by comparison with the gray correction value of the control group. […]

Some results are limits rather than exact numbers.

T1 sequence (P01116 1-188 isoform P01116-2 G12D): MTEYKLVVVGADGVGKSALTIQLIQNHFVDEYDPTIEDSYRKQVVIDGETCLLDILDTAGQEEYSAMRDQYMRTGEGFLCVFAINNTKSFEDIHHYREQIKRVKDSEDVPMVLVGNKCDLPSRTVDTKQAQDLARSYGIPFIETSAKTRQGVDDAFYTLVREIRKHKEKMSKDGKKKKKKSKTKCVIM

As a reminder, the IC50 is the concentration at which inhibition is half-maximal. As a reminder, the DC50 is the concentration at which degradation of the target reaches its halfway point. A lower DC50 goes with a more potent degrader. By Dmax is commonly meant the greatest extent of degradation seen. Consider `CCc1cccc2cc(O)cc(-c3ncc4c(N5CC6CCC(C5)N6)nc(NCC5(CN6CCN(CC7CCC8(CC7)CCN(C(=O)c7ccc(Cl)c(N9CCC(=O)NC9=O)c7)CC8)CC6)CC5)nc4c3F)c12` [Example 47, 1-(5-(9-((4-((1-(((4-(3,8-diazabicyclo[3.2.1]octan-3-yl)-7-(8-ethyl-3-hydroxynaphthalen-1-yl)-8-fluoropyrido[4,3-d]pyrimidin-2-yl)amino)methyl)cyclopropyl)methyl)piperazin-1-yl)methyl)-3-azaspiro [5.5]undecane-3-carbonyl)-2-chlorophenyl)dihydropyrimidine-2,4(1H,3H)-dione], for which the IC50 in assay [1] (class symbols) lay in the range of 50 to 100 nM. In addition, in assay [2] (class symbols), the IC50 is 50 to 100 nM. Moreover, on KRAS-G12D (class symbols), the DC50 lay in the range of 100 to 500 nM and the Dmax lay within 50 to 80%.

On to `C#Cc1c(F)ccc2cc(O)cc(-c3ncc4c(N5CC6CCC(C5)N6)nc(OCC5(CN6CCN(CC7CCC8(CC7)CCN(C(=O)c7ccc(OC(F)(F)F)c(N9CCC(=O)NC9=O)c7)CC8)CC6)CC5)nc4c3F)c12` [Example 39, 1-(5-(9-((4-((1-(((4-(3,8-diazabicyclo[3.2.1]octan-3-yl)-7-(8-ethynyl-7-fluoro-3-hydroxynaphthalen-1-yl)-8-fluoropyrido[4,3-d]pyrimidin-2-yl)oxy)methyl)cyclopropyl)methyl)piperazin-1-yl)methyl)-3-azaspiro[5.5]undecane-3-carbonyl)-2-(trifluoromethoxy)phenyl)dihydropyrimidine-2,4(1H,3H)-dione], for which the IC50 in assay [1] (class symbols) is at most 50 nM; in assay [2] (class symbols), 100 to 500 nM. The compound also displayed a DC50 at KRAS-G12D (class symbols) of at most 50 nM. The compound further displayed a Dmax at KRAS-G12D (class symbols) of 50 to 80%.

In assay [1] (class symbols), `C#Cc1c(F)ccc2cc(O)cc(-c3ncc4c(N5CC6CCC(C5)N6)nc(OCC5(CN6CCN(CC7CCC8(CC7)CCN(C(=O)c7ccc(F)c(N9CCC(=O)NC9=O)c7)CC8)CC6)CC5)nc4c3F)c12` [Example 48, 1-(5-(9-((4-((1-(((4-(3,8-diazabicyclo[3.2.1]octan-3-yl)-7-(8-ethynyl-7-fluoro-3-hydroxynaphthalen-1-yl)-8-fluoropyrido[4,3-d]pyrimidin-2-yl)oxy)methyl)cyclopropyl)methyl)piperazin-1-yl)methyl)-3-azaspiro[5.5]undecane-3-carbonyl)-2-fluorophenyl)dihydropyrimidine-2,4(1H,3H)-dione] came in with an IC50 of at most 50 nM. This compound yielded an IC50 in assay [2] (class symbols) of at most 50 nM. At KRAS-G12D (class symbols), this compound returned a DC50 of at most 50 nM and a Dmax of 80 to 100%.

In assay [1] (numeric values), `CCc1cccc2cc(O)cc(-c3ccc4c(N5CC6CCC(C5)N6)nc(OCC5(CN6CCN(CC7CCC8(CC7)CCN(C(=O)c7ccc(Cl)c(N9CCC(=O)NC9=O)c7)CC8)CC6)CC5)nc4c3F)c12` [Example 62, 1-(5-(9-((4-((1-(((4-(3,8-diazabicyclo[3.2.1]octan-3-yl)-7-(8-ethyl-3-hydroxynaphthalen-1-yl)-8-fluoroquinazolin-2-yl)oxy)methyl)cyclopropyl)methyl)piperazin-1-yl)methyl)-3-azaspiro[5.5]undecane-3-carbonyl)-2-chlorophenyl)dihydropyrimidine-2,4(1H,3H)-dione] yielded an IC50 of 4.98 nM. Further, in assay [2] (numeric values), inhibition was half-maximal at 13.1 nM (IC50). Also, on KRAS-G12D (numeric values), half-maximal degradation (DC50) was put at 15.8 nM and the Dmax worked out at 94.8%.

Take `CCc1c(F)ccc2cc(O)cc(-c3ncc4c(N5CC6CCC(C5)N6)nc(OCC5(CN6CCN(CC7CCC8(CC7)CCN(C(=O)c7ccc(C)c(N9CCC(=O)NC9=O)c7)CC8)CC6)CC5)nc4c3F)c12` [Example 37, 1-(5-(9-((4-((1-(((4-(3,8-diazabicyclo[3.2.1]octan-3-yl)-7-(8-ethyl-7-fluoro-3-hydroxynaphthalen-1-yl)-8-fluoropyrido[4,3-d]pyrimidin-2-yl)oxy)methyl)cyclopropyl)methyl)piperazin-1-yl)methyl)-3-azaspiro[5.5]undecane-3-carbonyl)-2-methylphenyl)dihydropyrimidine-2,4(1H,3H)-dione]: the half-maximal inhibitory concentration (IC50) in assay [1] (class symbols) was at most 50 nM. This compound also registered an IC50 in assay [2] (class symbols) of 100 to 500 nM. In addition, on KRAS-G12D (class symbols), the DC50 is at most 50 nM and the Dmax was in the range of 80 to 100%.

With `CCc1c(F)ccc2cc(O)cc(-c3ccc4c(N5CC6CCC(C5)N6)nc(OCC5(CN6CCN(CC7CCC8(CC7)CCN(C(=O)c7ccc(Cl)c(N9CCC(=O)NC9=O)c7)CC8)CC6)CC5)nc4c3F)c12` [Example 74, 1-(5-(9-((4-((1-(((4-(3,8-diazabicyclo[3.2.1]octan-3-yl)-7-(8-ethyl-7-fluoro-3-hydroxynaphthalen-1-yl)-8-fluoroquinazolin-2-yl)oxy)methyl)cyclopropyl)methyl)piperazin-1-yl)methyl)-3-azaspiro[5.5]undecane-3-carbonyl)-2-chlorophenyl)dihydropyrimidine-2,4(1H,3H)-dione], the IC50 in assay [1] (numeric values) was 15.7 nM; in assay [2] (numeric values), 31.6 nM. On KRAS-G12D (numeric values), the DC50 came to 38.1 nM. Further, the Dmax at KRAS-G12D (numeric values) stood at 77%.

As for `C#Cc1c(F)ccc2cc(O)cc(-c3ncc4c(N5CC6CCC(C5)N6)nc(NCC5(CN6CCN(CC7CCC8(CC7)CCN(C(=O)c7ccc(C)c(N9CCC(=O)NC9=O)c7)CC8)CC6)CC5)nc4c3F)c12` [Example 44, 1-(5-(9-((4-((1-(((4-(3,8-diazabicyclo[3.2.1]octan-3-yl)-7-(8-ethynyl-7-fluoro-3-hydroxynaphthalen-1-yl)-8-fluoropyrido[4,3-d]pyrimidin-2-yl)amino)methyl)cyclopropyl)methyl)piperazin-1-yl)methyl)-3-azaspiro[5.5]undecane-3-carbonyl)-2-methylphenyl)dihydropyrimidine-2,4(1H,3H)-dione], the IC50 in assay [1] (class symbols) was at most 50 nM; in assay [2] (class symbols), 100 to 500 nM. Moreover, the DC50 at KRAS-G12D (class symbols) was at most 50 nM. Further, the Dmax on KRAS-G12D (class symbols) was 80 to 100%.
